Experimental data: US20240374677A1, “VARIOUS COMPOUNDS FOR THE TREATMENT OF NEUROFIBROMATOSIS TYPE 1” (PUSAN NATIONAL UNIVERSITY INDUSTRY-UNIVERSITY COOPERATION …, priority 2023, published 2024)

Assays:
NF1-GRD1 protein [1] = assay: Nano-Glo HiBiT lytic assay of NF1-GRD1 protein in stable 293T cells; type: cell-based, human; conditions: for effect of increasing NF1 protein, times higher than control group: 293T cells stably expressing NF1-GRD1, treated 24 hours, luciferase activity vs DMSO-treated control, FIG. 8; for concentration showing the highest activity: 0-5.0 μM tested
NF1 protein [2] = assay: Western blot of NF1 protein in A549 cells; type: cell-based, human; conditions: 5 μM, 6 hours, FIG. 10
Protocol: (§1) The effect of increasing NF1 protein in human renal epithelial-like cells (293T), human lung cancer cells (A549), and mouse embryonic fibroblasts (MEF) was analyzed using Western blot. Specifically, the cells incubated in a 10% FBS+DMEM culture medium for 48 hours were treated with 5 μM each of compounds for 6 hours, and then the quantified protein samples were subjected to electrophoresis. After electrophoresis, the proteins in the gel were transferred to a PVDF membrane and then Western blot was performed using NF1 antibody (Abcam, Cat#ab128054).

[3] = tested on: A549GR (anticancer resistant) cells; assay: MTT assay in A549GR cells; type: cell-based, human; conditions: various concentrations, 72 hours, FIG. 11
Protocol: (§2) Human lung cancer cells A549 and A549GR were treated with PN-NF27, PN-NF28, PN-NF30, PN-NF38, and PN-NF41, respectively, and then the MTT assay results were shown. Specifically, A549 and A549GR (anticancer resistant) cells incubated for 24 hours in a 96 well plate were treated with various concentrations of compounds for 72 hours, respectively, and then added with 10 μl of 3-(4,5-dimethylthiazole-2-yl)-2,5-diphenyltetrazolium bromide (MTT) and after 2 hours, the absorbance was measured at 550 nm.

NF1 protein [4] = assay: Western blot of NF1 protein in mouse embryonic fibroblasts (MEF); type: cell-based; conditions: for NF1 protein quantification (Western blot) vs control group: MEF; for NF1 protein increasing effect (Western blot): MEF cells, 6 hours, compared to other substances, FIG. 10
Protocol: as §1
In addition, the effect of increasing NF1 protein in mouse embryonic fibroblasts (MEF) was analyzed using Western blot. A specific method was as described in Experimental Example 3.
The effect of increasing NF1 protein in mouse embryonic fibroblasts (MEF) was analyzed using Western blot. A specific method was as described in Experimental Example 3.

[5] = tested on: HCT-8, HCT-15, HCT-116, PANC1, and PC3 cells; assay: MTT assay in colon, pancreatic and prostate cancer cells; type: cell-based, human; conditions: 0, 0.1, 0.5, 1, 5, 10 μM, 72 hours, FIG. 17
Protocol: The cell proliferation inhibitory effect of PN-NF30 was confirmed using human colon cancer cells HCT-8, HCT-15, and HCT-116, human pancreatic cancer cells PANC1, and human prostate cancer cells PC3. Specifically, the HCT-8, HCT-15, HCT-116, PANC1, and PC3 cells incubated for 24 hours in a 96 well plate were treated with compounds at concentrations of 0, 0.1, 0.5, 1, 5, and 10 μM for 72 hours, respectively, and then added with 10 μl of 3-(4,5-dimethylthiazole-2-yl)-2,5-diphenyltetrazolium bromide (MTT) and after 1 hours, the absorbance was measured at 550 nm.

[6] = tested on: human lung cancer cells A549; assay: MTT assay in A549 cells; type: cell-based; conditions: A549, various concentrations, 72 hours, FIG. 11
Protocol: as §2

NF1 protein [7] = assay: Western blot of NF1 protein in 293T cells; type: cell-based, human; conditions: 5 μM, 6 hours, FIG. 10
Protocol: as §1

NF1 protein [8] = assay: Western blot of NF1 protein in skin cells of NF1 patients; type: cell-based, human; conditions: 1 μM; normal cells and NF-09, NF-21, NF-11 cells, FIG. 13
Protocol: as §1
The effect of increasing NF1 protein in skin cells NF-09, NF-21, and NF-11 of NF1 patients was analyzed using Western blot. A specific method was as described in Experimental Example 3.

NF1-GRD1 protein [9] = assay: Nano-Glo HiBiT lytic assay of NF1-GRD1 protein in stable 293T cells; type: cell-based, human; conditions: FIG. 9; for treatment time at which the maximum effect was shown: 6 hours and 24 hours tested
Protocol: The cells were treated in the same manner as in Experimental Example 1 except that the treatment time was 6 hours and 24 hours, respectively, and the results of measuring the activity in each case were illustrated in FIG. 9.
The cells were treated in the same manner as in Experimental Example 1, except that the treatment time was 6 hours and 24 hours, respectively, and the concentration of PN-NF27 was 0 μM, 0.25 μM, 0.5 μM, 1.0 μM, and 5.0 μM, and the results of measuring the activity in each case were illustrated in FIG. 8.

[10] = tested on: skin cells NF-09, NF-21, and NF-11 of NF1 patients; assay: MTT assay in skin cells of NF1 patients; type: cell-based, human
Protocol: The cell proliferation inhibitory effect of PN-NF27 was confirmed by an MTT method using skin cells NF-09, NF-21, and NF-11 of NF1 patients. […]
(§3) The cell proliferation inhibitory effect of PN-NF38 was confirmed using skin cells NF-09, NF-21, and NF-11 of NF1 patients. Specifically, skin fibroblasts (passage>8) incubated for 48 hours were treated with PN-NF38 at 0, 0.1, 1, 2.5, 5, and 10 μM for 24 hours, and then added with 3-(4,5-dimethylthiazol-2-yl)-2,5-diphenyltetrazolium bromide (MTT) and reacted for 1 hours, and then the absorbance was measured at 550 nm.
as §3, with “PN-NF41” for “PN-NF38”, “24” for “48”, “5” for “PN-NF38 at 0, 0.1, 1, 2.5, 5, and 10”, “μM of PN-NF41” for “μM”, “72” for “24”

SMILES	effect of increasing NF1 protein, times higher than control group (NF1-GRD1 protein [1])	NF1 protein increasing effect (Western blot) (NF1 protein [2])	cell proliferation (MTT) [3]	NF1 protein quantification (Western blot) vs control group (NF1 protein [4]; 5 μM, FIG. 16)	cell proliferation (MTT), concentration dependence [5]	cell proliferation (MTT) [6]	NF1 protein increasing effect (Western blot) (NF1 protein [7])	NF1 protein (Western blot) treated vs not treated (NF1 protein [8])	activity compared with the case not treated (0 μM) (NF1-GRD1 protein [1]; PN-NF27 at 0.25, 0.5, 1.0, 5.0 μM, 6 hours and 24 hours, FIG. 12)	concentration showing the highest activity (NF1-GRD1 protein [1]; incubated for 24 hours, FIG. 12) [µM]	concentration showing the highest activity (NF1-GRD1 protein [1]; treated for 6 hours, FIG. 12) [µM]	treatment time at which the maximum effect was shown (NF1-GRD1 protein [9]) [h]	maximum effect compared to the control group (NF1-GRD1 protein [9]; treatment time 6 hours) [fold]	NF1 protein increasing effect (Western blot) (NF1 protein [4]; 5 μM)	NF1 protein quantification (Western blot) vs control group (NF1 protein [4]; 1 μM, FIG. 14)	cell proliferation (MTT) treated vs not treated ([10]; 1 μM (result text), 72 hours, normal cells and NF-09, NF-21, NF-11 cells, FIG. 15)	maximum effect compared to the control group (NF1-GRD1 protein [9]; treatment time 24 hours) [fold]	NF1 protein quantification (Western blot) vs control group (NF1 protein [4]; 2 μM, FIG. 18)	cell proliferation (MTT), concentration dependence ([10]; 0, 0.1, 1, 2.5, 5, 10 μM, 24 hours, FIG. 19)	cell viability (MTT) ([10]; 10 μM, 24 hours, FIG. 19)
CN1CCc2cccc3c2[C@H]1Cc1ccc(O)c(O)c1-3.CN1CCc2cccc3c2[C@H]1Cc1ccc(O)c(O)c1-3.Cl.Cl.O [PN-NF30, R(−) Apomorphine hydrochloride hemihydrate, reference compound]	about 2 times	superior to other substances	effectively inhibited	tended to increase	tended to effectively inhibit cell proliferation as the concentration increased	effectively inhibited	–	–	–	–	–	–	–	–	–	–	–	–	–	–
C/C=C(/C)C(=O)O[C@H]1C(C)=C[C@]23C(=O)[C@@H](C=C(COC(C)=O)[C@@H](O)[C@]12O)[C@H]1[C@@H](C[C@H]3C)C1(C)C [PN-NF27, 20-O-acetylingenol-3-angelate]	about 6 times	superior to other substances	effectively inhibited	–	–	effectively inhibited	excellent	tended to increase	higher activity	0.5	5.0	≤ 6	24	superior to other substances	tended to increase	tended to be inhibited	–	–	–	–
C=C(NC(=O)C(=C)NC(=O)c1csc(C2=N[C@@H]3c4csc(n4)[C@H]4NC(=O)c5csc(n5)[C@H]([C@](C)(O)[C@@H](C)O)NC(=O)[C@H]5CSC(=N5)/C(=C/C)NC(=O)[C@H]([C@@H](C)O)NC(=O)c5csc(n5)[C@]3(CC2)NC(=O)[C@H](C)NC(=O)C(=C)NC(=O)[C@H](C)NC(=O)[C@H]([C@@H](C)CC)N[C@@H]2C=Cc3c([C@H](C)O)cc(nc3[C@H]2O)C(=O)O[C@@H]4C)n1)C(N)=O [PN-NF38, Thiostrepton]	about 20 times	superior to other substances	effectively inhibited	–	–	effectively inhibited	–	–	–	–	–	24	–	superior to other substances	–	–	11	tended to increase	tended to be effectively inhibited as the concentration of PN-NF38 cells increased	less than 0.3
